The target in data set [1] is T1, gp41 hydrophobic pocket (FeII(env2.0)3) (Human immunodeficiency virus type 1 group M subtype B, UniProt P04578). Description: Fluorescence intensity binding affinity assay, displacement of C18FL from FeII. Details: species or system HIV-1. The settings on record: for Increase in affinity for the HP of STP ester compared to acid, change in IC50: ester vs acid.
The subject of data set [2] is HXB2 Env mediated cell-cell fusion. Description: Cell-cell fusion assay, HL2/3 effector cells and TZM-bl target cells. It is filed as cell-based, HIV-1. The settings on record: for IC50: Human immunodeficiency virus 1, HXB2, read-out: IC50 (CCF); for Potency enhancement against cell-cell fusion upon STP esterification: ester vs acid.
Data set [3] concerns HXB2 pseudotyped virus. Description: microbe, parasite or virus in culture. The settings on record: for Increase in IC50 (loss of activity) when compound added 2 h after virus: HXB2 pseudotyped virus. It is filed as cell-based, HIV-1.
A short description of data set [4]: Resazurin cell viability assay run concomitantly with the fusion assays. It is filed as cell-based. The settings on record: human, TZM-bl cells, approximated. On the technique in general: Alamar Blue is a resazurin reagent that responds to reducing activity.
For data set [5], the system named is HIV-1 HXB2 Env pseudotyped virus. As to the kind of experiment: Virus-cell fusion (infectivity) assay, HXB2 Env pseudotyped virus, TZM-bl cells. It is filed as cell-based. The following applies: for EC50 / EC90 / IC50: Human immunodeficiency virus 1, HXB2, TZM-bl; for EC50: read-out: Antiviral Activity EC50; for EC90: read-out: Antiviral Activity EC90; for IC50: read-out: IC50 HXB2.

A short description of data set [6]: Aqueous solubility. It is filed as physicochemical.
Data set [7] relates to gp41 hydrophobic pocket metallopeptide with Lys-574 replaced with norleucine. It is filed as binding, HIV-1. The settings on record: Nle-574 receptor vs Lys-574 receptor.
Data set [8] deals with Ampho-MLV Env pseudotyped virus. As to the kind of experiment: Virus-cell fusion assay, Ampho-MLV Env pseudotyped virus. It is filed as cell-based.
Data set [9] concerns HIV-1 JRFL Env pseudotyped virus. As to the kind of experiment: Virus-cell fusion assay, JRFL Env pseudotyped virus. It is filed as cell-based.
In data set [10] the test system is HXB2 Env mediated cell-cell fusion. Details: method as in earlier work. The following applies: cell-cell fusion assay; cited from earlier work.
Data set [11] deals with HIV-1 HXB2 Env pseudotyped virus. Also on record: method as in earlier work. The settings on record: virus-cell fusion assay using lab adapted strain HXB2; cited from earlier work.
Data set [12] deals with T1, gp41 hydrophobic pocket (FeII(env2.0)3). The following applies: equilibrium binding to the HP; cited from earlier work.
The subject of data set [13] is TZM-bl cells. As to the kind of experiment: Resazurin cell viability assay run concomitantly with the fusion assays. It is filed as cell-based. The following applies: at 100 µM, Ampho-MLV Env experiment.
The mark [14] stands for this setting: in antiviral assay, read-out: Antiviral Activity CC50.
Setting [15] is: in cell-cell fusion assay, read-out: Inhibition of Cell-Cell Fusion CC50.
The mark [16] stands for this setting: ester vs acid, pseudoviral infectivity.

Like-named read-outs stand apart in the source and are kept apart here.

T1 sequence (P04578 565-584): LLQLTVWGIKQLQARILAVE

As to `Cn1ncc2ccc(-c3ccc4cnn(Cc5ccc(F)c(C(=O)O)c5)c4c3)cc21` [Compound 2], in data set [1], the Ki stood at 25 ± 5 µM and the “Increase in affinity for the HP of STP ester compared to acid, change in IC50” value (shortened to “Increase in affinity for the HP … change in IC50”) is reported as 3 fold. For the same compound, in data set [2], the half-inhibitory concentration (IC50) was no less than 50 µM and the “Potency enhancement against cell-cell fusion upon STP esterification” value was determined as 7 fold. In data set [3], the “Increase in IC50 (loss of activity) when compound added 2 h after virus” value (“Increase in IC50 (loss of activity)” below) amounted to 2 fold. In addition, in [4] (setting [14]), the CC50 was no less than 356 µM. Also, the CC50 in data set [4] (setting [15]) was no less than 113 µM. Also, in [5], the EC50 was determined as 35 ± 7 µM, the EC90 was found to be 800 ± 190 µM and the IC50 came out at 35 µM. Besides, the “Improvement of antiviral activity (EC50) by STP esterification” value (“Improvement of antiviral activity (EC50)” for short) in [5] (setting [16]) was found to be 7 fold.

Regarding `CCOC(=O)c1cc(O)n(-c2ccc(C(=O)O)cc2)n1` [Compound 3], in [1], the affinity corresponds to a Ki of 177 ± 12 µM. In addition, the “Increase in affinity for the HP … change in IC50” value in data set [1] amounted to 10 fold. For the same compound, the Aqueous solubility entry in data set [6] is “high aqueous solubility”. For the same compound, the IC50 in [2] and in [5] was greater than 100 µM throughout. The CC50 in [4] (setting [14]) and in data set [4] (setting [15]) was greater than 100 µM in each case. For the same compound, the EC50 in data set [5] was greater than 100 µM. Besides, the “Improvement of antiviral activity (EC50)” value in data set [5] (setting [16]) is recorded as “greater than 10 fold”. In [5] (virus-cell fusion assay using lab adapted strain HXB2), the “IC50 HXB2” value is listed as “No measurable antiviral potency”.

Consider `COC(=O)c1cccc(Cn2ccc3ccc(-c4ccc5ccn(Cc6cccc(C(=O)Oc7c(F)c(F)c(S(=O)(=O)O)c(F)c7F)c6)c5c4)cc32)c1` [Compound 1-STP], for which, in data set [7], the “Increase in KI on replacing Lys-574 with norleucine” value amounted to 6 fold. For the same compound, the “Increase in IC50 (loss of activity)” value in [3] is 14 fold. Further, in data set [4] (setting [14]), the half-maximal cytotoxic concentration (CC50) turned out to be 20 ± 3 µM. For the same compound, the CC50 in data set [4] (setting [15]) was greater than 10 µM. In data set [5], the EC50 worked out at 0.3 ± 0.2 µM and the EC90 was found to be 2.9 ± 1.6 µM. In data set [5] (setting [16]), the “EC90 difference, STP ester compared to acid” value worked out at 14 fold and the “Improvement of antiviral activity (EC50)” value is listed as 10 fold.

As for `CCOC(=O)c1cc(O)n(-c2ccc(C(=O)Oc3c(F)c(F)c(S(=O)(=O)O)c(F)c3F)cc2)n1` [Compound 3-STP], in data set [1], the Ki was roughly 20 µM and the “Increase in affinity for the HP … change in IC50” value was found to be 10 fold. Moreover, the “Activity against Ampho-MLV Env pseudotyped particles” value in data set [8] was “no activity”. Moreover, in data set [3] (Human immunodeficiency virus 1, HXB2, 2 h, read-out: Residual activity when added after 2 h), the activity at 40 µM worked out at 12%. In addition, the CC50 in data set [4] (setting [14]) was greater than 40 µM. Further, in [4] (setting [15]), the CC50 is greater than 40 µM. Also, in data set [5], the EC50 was 9 ± 2 µM and the EC90 came to 44 ± 15 µM. Further, the “Improvement of antiviral activity (EC50)” value in data set [5] (setting [16]) is greater than 10 fold. Further, the “Reduction in efficacy against JRFL Env compared to HXB2 Env” value in data set [9] is on record as 4 fold.

On to `COC(=O)c1cccc(Cn2ccc3ccc(-c4ccc5ccn(Cc6cccc(C(=O)O)c6)c5c4)cc32)c1` [Compound 1], for which, in data set [1], the “Increase in affinity for the HP … change in IC50” value is on record as “no change”. In addition, the “Potency enhancement against cell-cell fusion upon STP esterification” value in data set [2] is recorded as “about 2 fold”. The “Increase in KI on replacing Lys-574 with norleucine” value in [7] stood at 5 fold. The “Increase in IC50 (loss of activity)” value in data set [3] was found to be 2 fold. The figures for the cytotoxic concentration (CC50) in [4] (setting [14]) and in data set [4] (setting [15]) were 22 ± 3 µM and greater than 10 µM, respectively. Moreover, in data set [5], the EC50 stood at 3.2 ± 1.6 µM. Also, the EC90 in data set [5] worked out at 17 ± 13 µM. Moreover, in data set [5] (setting [16]), the “Improvement of antiviral activity (EC50)” value is on record as “greater than 10 fold”. Besides, the figures for the IC50 in data set [10] and in data set [11] were 0.4 µM and 3 µM, respectively. For the same compound, the Ki in [12] was 1 ± 0.5 µM.

In the case of `Cc1ccnc2c1NC(=O)c1cccnc1N2C1CC1` [nevirapine, reference compound], in data set [3], the “Increase in IC50 (loss of activity)” value is listed as 2.7 fold.

Consider `c1cc(CN2CCCNCCNCCCNCC2)ccc1CN1CCCNCCNCCCNCC1` [AMD3100, reference compound], for which the “Residual efficacy when added 2 h after virus” value in [3] (at 50X EC50) is 5%.

On to `Cn1ncc2ccc(-c3ccc4cnn(Cc5ccc(F)c(C(=O)Oc6c(F)c(F)c(S(=O)(=O)O)c(F)c6F)c5)c4c3)cc21` [Compound 2-STP], for which, in data set [1], the Ki was roughly 10 µM and the “Increase in affinity for the HP … change in IC50” value was determined as 3 fold. For the same compound, in [8], the “Activity against Ampho-MLV Env pseudotyped particles” value was “artifact of the 40% cytotoxicity at 100 µM”. Besides, the “Increase in IC50 on Nle-574 substitution” value in [7] worked out at 2.2 fold. Besides, the “Increase in IC50 (loss of activity)” value in data set [3] stood at 14 fold. In [13], this compound registered a Cytotoxicity of 40%. Also, the CC50 in data set [4] (setting [14]) was no less than 100 µM. Also, the CC50 in [4] (setting [15]) is no less than 200 µM. Further, in data set [5], the EC50 was found to be 5 ± 4 µM and the EC90 was 59 ± 22 µM. Besides, the “Improvement of antiviral activity (EC50)” value in data set [5] (setting [16]) is 7 fold. For the same compound, the “Reduction in efficacy against JRFL Env compared to HXB2 Env” value in data set [9] turned out to be 2 fold.

A word on the Ki: it is the equilibrium dissociation constant of an inhibitor or competing ligand from its target. The IC50 is the concentration needed to halve the response being measured. As usually defined, the CC50 is the concentration at which the toxic effect on the cells reaches its halfway point. Usually EC50 stands for the concentration that produces a half-maximal response. In general, EC90 refers to the concentration needed for an effect of 90%.

The record behind these values is publication PMC9784957 (Viruses, 2022).
